Reference: patent US9034866B2 (Genentech, Inc., priority 2012, dated 2015)

Biological target: nuclear factor-kappa B (NF-kB)-inducing kinase (NIK) (Homo sapiens (Human), UniProt Q99558)
Assay: NIK Enzyme Inhibition Assay (Transcreener ADP fluorescence polarization)
Format: biochemical
Settings: purified NIK 0.2-1 nM, 10 uM ATP, Morrison's quadratic equation; read-out: NIK ADP-FP (Ki uM)
Description: NIK Enzyme Inhibition Assay: The ability of the nuclear factor-kappa B (NF-kB)-inducing kinase (NIK) to catalyze the hydrolysis of adenosine-5′-triphosphate (ATP) was monitored using the Transcreener ADP (adenosine-5′-diphosphate) assay (BellBrook Labs). Purified NIK (0.2-1 nM) derived from a baculovirus-infected insect cell expression system was incubated with test compounds for 1-3.5 hours in 50 mM 2-[4-(2-hydroxyethyl)piperazin-1-yl]ethanesulfonic acid buffer (pH 7.2) containing 10 mM MgCl2, 2 mM dithiothreitol, 10 uM ATP, 0.01% Triton X-100, 0.1% gamma-globulins from bovine blood, 1% dimethylsulfoxide (DMSO), 12 ug/mL ADP antibody and 4 nM ADP-AlexaFluor® 633 tracer. Reactions were quenched by the addition of 20 mM 2,2′,2″,2′″-(ethane-1,2-diyldinitrilo)tetraacetic acid and 0.01% Brij 35. The tracer bound to the antibody was displaced by the ADP generated during the NIK reaction, which causes a decrease in fluorescence polarization that was measured by laser excitation at 633 nm with a Fluorescence Correlation Spectroscopy Plus reader (Evotec AG).

Sequence of nuclear factor-kappa B (NF-kB)-inducing kinase (NIK) (Q99558 whole entry): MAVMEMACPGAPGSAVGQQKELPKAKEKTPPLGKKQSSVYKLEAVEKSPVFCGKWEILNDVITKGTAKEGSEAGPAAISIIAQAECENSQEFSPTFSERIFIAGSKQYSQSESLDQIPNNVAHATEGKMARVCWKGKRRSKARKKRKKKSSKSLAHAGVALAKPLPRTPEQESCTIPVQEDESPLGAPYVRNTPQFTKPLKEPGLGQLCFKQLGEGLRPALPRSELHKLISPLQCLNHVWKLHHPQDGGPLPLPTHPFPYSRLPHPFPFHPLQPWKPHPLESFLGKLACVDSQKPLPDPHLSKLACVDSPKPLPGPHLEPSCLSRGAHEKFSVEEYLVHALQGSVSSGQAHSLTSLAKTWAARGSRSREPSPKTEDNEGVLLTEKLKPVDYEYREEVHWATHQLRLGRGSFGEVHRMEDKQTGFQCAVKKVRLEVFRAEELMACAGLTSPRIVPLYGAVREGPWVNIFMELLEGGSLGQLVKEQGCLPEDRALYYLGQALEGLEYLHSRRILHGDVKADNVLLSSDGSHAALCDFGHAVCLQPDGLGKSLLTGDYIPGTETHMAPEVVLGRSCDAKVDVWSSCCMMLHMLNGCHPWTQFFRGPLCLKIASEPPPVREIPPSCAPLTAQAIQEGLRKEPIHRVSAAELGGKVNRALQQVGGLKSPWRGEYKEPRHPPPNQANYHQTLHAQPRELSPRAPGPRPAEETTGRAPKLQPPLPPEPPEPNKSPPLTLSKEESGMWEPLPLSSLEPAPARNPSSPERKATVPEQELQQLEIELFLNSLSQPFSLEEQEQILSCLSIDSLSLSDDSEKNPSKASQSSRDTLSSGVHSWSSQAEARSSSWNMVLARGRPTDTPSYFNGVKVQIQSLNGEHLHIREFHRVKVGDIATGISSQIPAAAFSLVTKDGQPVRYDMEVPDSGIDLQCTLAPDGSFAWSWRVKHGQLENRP

| Structure (SMILES) | Ki |
| --- | --- |
| CC(=O)N1CCN(Cc2c(C(N)=O)nc3n2C2CC(C2)c2cc(F)c(C#CC(C)(C)O)cc2-3)CC1 (racemic) | 0.026 µM |
| Cc1nc(C(C)(O)C#Cc2cc3c(cc2F)OCCn2cc(C(N)=O)nc2-3)c[nH]1 (racemic) | 2.5 µM |
| COCCNCc1c(C(N)=O)nc2n1C1CC(C1)c1cc(F)c(C#CC(C)(C)O)cc1-2 (racemic) | 0.056 µM |
| CC(C)(O)C#Cc1cc2c(cc1F)C1CC(C1)n1c-2nc(C(N)=O)c1Cc1ccccc1Cl (racemic) | 0.0021 µM |
| CN1CC[C@](O)(C#Cc2ccc3c(c2)-c2nc(C(N)=O)c(C4CN(C(=O)C5CC5)C4)n2C2CC3C2)C1=O (racemic) | > 1.2 µM |
| CC(C)(O)C#Cc1cc2c(cc1F)C1CC(C1)c1sc(C(N)=O)cc1-2 (racemic) | 0.11 µM |
| Cc1cc([C@](C)(O)C#Cc2ccc3c(n2)-n2cc(C(N)=O)nc2CCO3)no1 (racemic) | 0.21 µM |
| CC(O)(C#Cc1cc2c(cc1F)OCCn1cc(C(N)=O)nc1-2)c1cc(CC#N)on1 (racemic) | 0.003 µM |
| CC(C)(O)C#Cc1cc2c(cc1F)OCCn1c-2nc(C(N)=O)c1C(=O)NC1CN2CCC1CC2 (racemic) | 0.453 µM |
| CC(C)(O)C#Cc1ccc2c(c1)-c1nc(C(N)=O)sc1C(CC(N)=O)CO2 (racemic) [Example 49] | 0.023 µM |
| CN(C)C(=O)C(C)(O)C#Cc1cc2c(cc1F)OCCn1cc(C(N)=O)nc1-2 (racemic) [Example 51] | 0.721 µM |
| CC(O)(C#Cc1cc2c(cc1F)OCCn1cc(C(N)=O)nc1-2)c1ccccn1 (racemic) [Example 54] | 0.024 µM |
| CC(C)(O)C#Cc1cc2c(cc1F)OCCn1c-2nc(C(N)=O)c1C(=O)NC1COC1 (racemic) [Example 59] | 0.006 µM |
| CC(C)(O)C#Cc1cc2c(cc1F)OCCn1c-2nc(C(N)=O)c1C(=O)NC(C)(C)C#N (racemic) [Example 61] | 0.105 µM |
| Cc1cccnc1C(C)(O)C#Cc1cc2c(cc1F)OCCn1cc(C(N)=O)nc1-2 (racemic) [Example 62] | > 5 µM |
| CC(O)(C#Cc1cc2c(cc1F)OCCn1cc(C(N)=O)nc1-2)C1(C)CC1 (racemic) [Example 64] | > 5 µM |
| CC(C)(O)C#Cc1cc2c(cc1F)OCCn1c-2nc(C(N)=O)c1C(=O)NCCN1CCCC1 (racemic) [Example 67] | 0.048 µM |
| CN1CCC(CNC(=O)c2c(C(N)=O)nc3n2CCOc2cc(F)c(C#CC(C)(C)O)cc2-3)C1 (racemic) [Example 68] | 0.879 µM |
| COCC1(CNC(=O)c2c(C(N)=O)nc3n2CCOc2cc(F)c(C#CC(C)(C)O)cc2-3)CC1 (racemic) [Example 69] | 0.041 µM |
| CC(O)(C#Cc1cc2c(cc1F)OCCn1cc(C(N)=O)nc1-2)c1nc(CC#N)cs1 (racemic) [Example 77] | 1.2 µM |
| CC(O)(C#Cc1cc2c(cc1F)OCCn1cc(C(N)=O)nc1-2)C(=O)N1CC(F)(F)C1 (racemic) [Example 156] | 0.155 µM |

| Structure (SMILES) | Ki |
| --- | --- |
| CC(O)(C#Cc1cc2c(cc1F)C1CC(C1)n1cc(C(N)=O)nc1-2)c1ccccn1 (racemic) [Example 160] | 0.0068 µM |
| CC(C)(O)C#Cc1cc2c(cc1F)OCCn1c-2nc(C(N)=O)c1C(O)c1cc(F)cc(F)c1 (racemic) [Example 161] | 0.0072 µM |
| CC(C)(O)C#Cc1cc2c(cc1Cl)OCCn1cc(C(N)=O)nc1-2 (racemic) [Example 186] | > 5 µM |
| CC(C)(O)C#Cc1cc2c(cc1F)OCCn1c-2nc(C(N)=O)c1-c1nc(C2CC2)no1 (racemic) [Example 188] | 0.19 µM |
| CC(C)(O)C#Cc1ccc2c(c1)-c1nc(C(N)=O)c(C(F)(F)F)n1CCO2 (racemic) [Example 198] | 0.54 µM |
| CC(C)(O)C#Cc1cc2c(cc1F)C1CC(C1)n1c-2nc(C(N)=O)c1-c1nc(-c2cccnc2)n[nH]1 (racemic) [Example 207] | 0.00077 µM |
| Cc1nc(C(C)(O)C#Cc2cc3c(cc2Cl)OCCn2cc(C(N)=O)nc2-3)no1 (racemic) [Example 231] | > 5 µM |
| COCCN(C)Cc1c(C(N)=O)nc2n1C1CC(C1)c1cc(F)c(C#CC(C)(C)O)cc1-2 (racemic) [Example 239] | 0.23 µM |
| NC(=O)c1cn2c(n1)-c1cc(C#CC3(O)CCCC3)ccc1OCC2 [Example 1, 9-(1-hydroxy-cyclopentylethynyl)-4,5-di-hydro-6-oxa-1,3a-diaza-benzo[e]azulene-2-carboxylic acid amide] | 0.052 µM |
| CC(C)(O)C#Cc1ccc2c(c1)-c1nc(C(N)=O)cn1CCO2 [Example 2, 9-(3-hydroxy-3-methyl-but-1-ynyl)-4,5-dihydro-6-oxa-1,3a-diaza-benzo[e]azu-lene-2-carboxylic acid amide] | 0.319 µM |
| CC(C)(O)C#Cc1ccc2c(c1)-c1nc(C(N)=O)sc1CCO2 [Example 3, 9-(3-hydroxy-3-methyl-but-1-ynyl)-4,5-dihydro-6-oxa-3-thia-1-aza-benzo[e]azu-lene-2-carboxylic acid amide] | 0.033 µM |
| NC(=O)c1nc2c(s1)CCOc1ccc(C#CC3(O)CCCC3)cc1-2 [Example 4, 9-(1-hydroxy-cyclopentylethynyl)-4,5-di-hydro-6-oxa-3-thia-1-aza-benzo[e]azu-lene-2-carboxylic acid amide] | 0.004 µM |
| CC(C)(O)C#Cc1cc2c(cc1F)OCCn1cc(C(N)=O)nc1-2 [Example 5, 8-fluoro-9-(3-hydroxy-3-methyl-but-1-ynyl)-4,5-dihydro-6-oxa-1,3a-diaza-ben-zo[e]azulene-2-carboxylic acid amide] | 0.034 µM |
| CC(C)(O)C#Cc1ccc2c(c1)-c1nc(C(N)=O)sc1C(=O)CO2 [Example 9, 9-(3-hydroxy-3-methyl-but-1-ynyl)-4-oxo-4,5-dihydro-6-oxa-3-thia-1-aza-benzo-[e]azulene-2-carboxylic acid amide] | 0.216 µM |
| CN(C)C1COc2ccc(C#CC(C)(C)O)cc2-c2nc(C(N)=O)sc21 (centres unmarked) [Example 10, 4-dimethylamino-9-(3-hydroxy-3-meth-yl-but-1-ynyl)-4,5-dihydro-6-oxa-3-thia-1-aza-benzo[e]azulene-2-carboxylic acid amide] | 0.096 µM |
| CC(C)(O)C#Cc1ccc2c(c1)-c1nc(C(N)=O)sc1C(N1CCOCC1)CO2 (centres unmarked) [Example 11, 9-(3-hydroxy-3-methyl-but-1-ynyl)-4-morpholin-4-yl-4,5-dihydro-6-oxa-3-thia-1-aza-benzo[e]azulene-2-carboxylic acid amide] | 0.416 µM |
| CC(C)(O)C#Cc1ccc2c(c1)-c1nc(C(N)=O)sc1C(O)CO2 (centres unmarked) [Example 12, 4-hydroxy-9-(3-hydroxy-3-methyl-but-1-ynyl)-4,5-dihydro-6-oxa-3-thia-1-aza-benzo[e]azulene-2-carboxylic acid amide] | 0.093 µM |
| CC(O)(C#Cc1cc2c(cc1F)OCCn1cc(C(N)=O)nc1-2)c1cncnc1 (centres unmarked) [Example 14, 8-Fluoro-9-(3-hydroxy-3-pyrimidin-5-yl-but-1-ynyl)-4,5-dihydro-6-oxa-1,3a-diaza-benzo[e]azulene-2-carboxylic acid amide] | 0.864 µM |
| CC(O)(C#Cc1cc2c(cc1F)OCCn1cc(C(N)=O)nc1-2)c1cnccn1 (centres unmarked) [Example 15, 8-fluoro-9-(3-hydroxy-3-pyrazin-2-yl-but-1-ynyl)-4,5-dihydro-6-oxa-1,3a-diaza-benzo[e]azulene-2-carboxylic acid amide] | 0.036 µM |
| CC(O)(C#Cc1cc2c(cc1F)OCCn1cc(C(N)=O)nc1-2)c1ncccn1 (centres unmarked) [Example 16, 8-fluoro-9-(3-hydroxy-3-pyrimidin-2-yl-but-1-ynyl)-4,5-dihydro-6-oxa-1,3a-diaza-benzo[e]azulene-2-carboxylic acid amide] | 0.025 µM |
